This is an account of results in patent publication US11180488B2, “Isoxazole o-linked carbamoyl cyclohexyl acids as LPA antagonists” (BRISTOL-MYERS SQUIBB COMPANY, priority 2017, dated 2021).

SMILES strings stand for the structures.

This assay deals with T1, human LPA1 (Homo sapiens, UniProt Q92633).
T1 construct: expressed in transfected cells; host or cells: Chinese hamster ovary (CHO) cells
In words: LPA1 functional antagonist assay (LPA-induced calcium flux). The format is cell-based. Conditions: CHO cells overexpressing human LPA1; calcium flux induced by 10 nM LPA; read-out: hLPA1 IC50. As for the experimental part:
The effectiveness of compounds of the present invention as LPA1 inhibitors can be determined in an LPA1 functional antagonist assay as follows:
Chinese hamster ovary cells overexpressing human LPA1 were plated overnight (15,000 cells/well) in poly-D-lysine coated 384-well microplates (Greiner bio-one, Cat #781946) in DMEM/F12 medium (Gibco, Cat #11039). Following overnight culture, cells were loaded with calcium indicator dye (AAT Bioquest Inc, Cat #34601) for 30 minutes at 37° C. The cells were then equilibrated to room temperature for 30 minutes before the assay. Test compounds solubilized in DMSO were transferred to 384 well non-binding surface plates (Corning, Cat #3575) using the Labcyte Echo acoustic dispense and diluted with assay buffer [1×HBSS with calcium/magnesium (Gibco Cat #14025-092), 20 mM HEPES (Gibco Cat #15630-080) and 0.1% fatty acid free BSA (Sigma Cat #A9205)] to a final concentration of 0.5% DMSO. Diluted compounds were added to the cells by FDSS6000 (Hamamatsu) at final concentrations ranging from 0.08 nM to 5 μM. and were then incubated for 20 min at room temperature at which time LPA (Avanti Polar Lipids Cat #857130C) was added at final concentrations of 10 nM to stimulate the cells. […] IC50 values were determined by fitting data to a 4-parameter logistic equation (GraphPad Prism, San Diego Calif.).

T1 sequence (Q92633 whole entry): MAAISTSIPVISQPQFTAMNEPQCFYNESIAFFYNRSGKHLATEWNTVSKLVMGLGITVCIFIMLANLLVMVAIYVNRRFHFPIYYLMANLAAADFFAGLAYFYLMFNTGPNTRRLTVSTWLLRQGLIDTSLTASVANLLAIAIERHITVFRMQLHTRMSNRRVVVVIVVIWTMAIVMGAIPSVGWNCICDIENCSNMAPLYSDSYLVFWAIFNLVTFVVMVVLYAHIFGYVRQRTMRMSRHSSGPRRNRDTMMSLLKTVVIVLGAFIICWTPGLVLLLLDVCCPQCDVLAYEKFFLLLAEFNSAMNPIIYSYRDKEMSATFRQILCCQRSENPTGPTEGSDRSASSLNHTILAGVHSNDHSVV

Broadly, the IC50 is the point on the concentration scale where inhibition reaches its midpoint. With `Cc1noc(-c2ccc(OC3CCCC(C#N)C3)cc2)c1COC(=O)N(C)C1CCCC1` (mixture of isomers) [Example 74, (5-(4-((3-cyanocyclohexyl)oxy)phenyl)-3-methylisoxazol-4-yl)methyl cyclopentyl(methyl)carbamate], the concentration for half-maximal inhibition (IC50) was 3250 nM.
Take `Cc1noc(-c2ccc(OC3CCCC(c4nnn[nH]4)C3)cc2)c1COC(=O)N(C)C1CCCC1` (mixture of isomers) [Example 75, (5-(4-((3-(1H-tetrazol-5-yl)cyclohexyl)oxy)phenyl)-3-methylisoxazol-4-yl) methyl cyclopentyl(methyl)carbamate]: the IC50 was 851 nM.
On to `Cc1noc(-c2ccc(O[C@@H]3CCC[C@@](F)(C(=O)O)C3)cc2)c1COC(=O)N(C)C1CCCC1` (racemic) [Example 3], for which the IC50 was 18 nM.
Take `Cc1noc(-c2ccc(O[C@@H]3CCC[C@](C)(C(=O)O)C3)cc2)c1COC(=O)N(C)C1CCCC1` (racemic) [Example 7, (±)-Cis-3-(4-(4-(((cyclopentyl(methyl)carbamoyl)oxy)methyl)-3-methylisoxazol-5-yl)phenoxy)-1-methylcyclohexanecarboxylic Acid]: the IC50 is 2180 nM.
As for `Cc1noc(-c2ccc(O[C@H]3CCC[C@](C)(C(=O)O)C3)cc2)c1COC(=O)N(C)C1CCCC1` (racemic) [Example 8, (±)-Trans-3-(4-(4-(((cyclopentyl(methyl)carbamoyl)oxy)methyl)-3-methylisoxazol-5-yl)phenoxy)-1-methylcyclohexanecarboxylic Acid], the half-inhibitory concentration (IC50) came to 89 nM.
Regarding `Cc1noc(-c2cnc(O[C@H]3CCC[C@H](C(=O)O)C3)cn2)c1COC(=O)N(C)C(C)C1CC1` (mixture of isomers) [Example 9, (±)-Trans-3-((5-(4-((((1-cyclopropylethyl)(methyl)carbamoyl)oxy)methyl)-3-methyl-isoxazol-5-yl)pyrazin-2-yl)oxy)cyclohexanecarboxylic Acid], the IC50 was found to be 85 nM.
For `Cc1noc(-c2ccc(O[C@H]3CCC[C@H](C(=O)O)C3)cc2)c1COC(=O)N(C)CCC1CCC1` (racemic) [Example 29] the value was 424 nM; for `Cc1noc(-c2ccc(O[C@@H]3CCC[C@@H](CC(=O)O)C3)cc2)c1COC(=O)N(C)C1CCCC1` (racemic) [Example 47, (±)-(Trans)-2-(3-(4-(4-(((cyclopentyl(methyl)carbamoyl)oxy)methyl)-3-methylisoxazol-5-yl)phenoxy)cyclohexyl)acetic Acid], 570 nM.
`Cc1noc(-c2ccc(O[C@H]3CCC[C@H](C(N)=O)C3)cc2)c1COC(=O)N(C)C1CCCC1` (racemic) [Example 73, (±)-Trans-(5-(4-((3-carbamoylcyclohexyl)oxy)phenyl)-3-methylisoxazol-4-yl)methyl cyclopentyl(methyl)carbamate]: the IC50 was 1210 nM.
For `Cc1noc(-c2ccc(O[C@@H]3CCC[C@@](F)(C(=O)O)C3)cc2)c1COC(=O)N(C)C1CCCC1` (single isomer, unassigned) [Example 4], the IC50 was 15 nM.
On to `Cc1noc(-c2ccc(OC3CCCC(F)(C(=O)O)C3)cc2)c1COC(=O)N(C)C1CCCC1` (single isomer, unassigned) [Example 5], for which the half-inhibitory concentration (IC50) was found to be 133 nM.
In the case of `Cc1noc(-c2ccc(OC3CCCC(c4nnn[nH]4)C3)cc2)c1COC(=O)N(C)C1CCCC1` (single isomer, unassigned) [Example 76, (5-(4-((3-(1H-tetrazol-5-yl)cyclohexyl)oxy)phenyl)-3-methylisoxazol-4-yl)methyl cyclopentyl(methyl)carbamate] it was 2310 nM; in that of `Cc1noc(-c2ccc(OC3CCCC(c4nnn[nH]4)C3)cc2)c1COC(=O)N(C)C1CCCC1` (single isomer, unassigned) [Example 77, (5-(4-((3-(1H-tetrazol-5-yl)cyclohexyl)oxy)phenyl)-3-methylisoxazol-4-yl)methyl cyclopentyl(methyl)carbamate], 379 nM; in that of `Cc1noc(-c2ccc(OC3CCCC(c4nnn[nH]4)C3)cc2)c1COC(=O)N(C)C1CCCC1` (single isomer, unassigned) [Example 78, (5-(4-((3-(1H-tetrazol-5-yl)cyclohexyl)oxy)phenyl)-3-methylisoxazol-4-yl)methyl cyclopentyl(methyl)carbamate], 565 nM.
With `CCCCN(C)C(=O)OCc1c(C)noc1-c1ccc(O[C@H]2CCC[C@H](C(=O)O)C2)cc1` [Example 2, (1S,3S)-3-(4-(4-(((butyl(methyl)carbamoyl)oxy)methyl)-3-methylisoxazol-5-yl)phenoxy) cyclohexane-1-carboxylic Acid], the IC50 was 28 nM.
Consider `Cc1noc(-c2ccc(O[C@@H]3CCC[C@@](F)(C(=O)O)C3)cc2)c1COC(=O)N(C)C1CCCC1` [Example 6], for which the IC50 turned out to be 103 nM.
For `Cc1nc(-c2onc(C)c2COC(=O)N(C)CCC2CC2)ccc1O[C@H]1CCC[C@H](C(=O)O)C1` [Example 10, (1S,3S)-3-((6-(4-((((2-Cyclopropylethyl)(methyl)carbamoyl)oxy)methyl)-3-methylisoxa-zol-5-yl)-2-methylpyridin-3-yl)oxy)cyclohexanecarboxylic Acid], the IC50 turned out to be 11 nM.
In the case of `Cc1nc(-c2onc(C)c2COC(=O)N(C)CC2CCC2)ccc1O[C@H]1CCC[C@H](C(=O)O)C1` [Example 11] it was 13 nM; in that of `Cc1nc(-c2onc(C)c2COC(=O)N(C)C2CCCC2)ccc1O[C@H]1CCC[C@H](C(=O)O)C1` [Example 12], 14 nM; in that of `CCC(CC)N(C)C(=O)OCc1c(C)noc1-c1ccc(O[C@H]2CCC[C@H](C(=O)O)C2)c(C)n1` [Example 13], 53 nM.
`Cc1nc(-c2onc(C)c2COC(=O)N(C)CC2CC2)ccc1O[C@H]1CCC[C@H](C(=O)O)C1` [Example 14]: the IC50 amounted to 14 nM.
For `CCCCN(C)C(=O)OCc1c(C)noc1-c1ccc(O[C@H]2CCC[C@H](C(=O)O)C2)c(C)n1` [Example 15] the value was 15 nM; for `Cc1nc(-c2onc(C)c2COC(=O)N(C)C2(c3ccccc3)CC2)ccc1O[C@H]1CCC[C@H](C(=O)O)C1` [Example 16], 93 nM.
As for `Cc1nc(-c2onc(C)c2COC(=O)N(C)Cc2cccc(Cl)c2)ccc1O[C@H]1CCC[C@H](C(=O)O)C1` [Example 17], the IC50 amounted to 399 nM.
Turning to `Cc1nc(-c2onc(C)c2COC(=O)N(C)Cc2ccccc2)ccc1O[C@H]1CCC[C@H](C(=O)O)C1` [Example 18], the IC50 is 31 nM.
For the compound `CCCCCN(C)C(=O)OCc1c(C)noc1-c1ccc(O[C@H]2CCC[C@H](C(=O)O)C2)c(C)n1` [Example 19], the IC50 was 10 nM.
Turning to `Cc1nc(-c2onc(C)c2COC(=O)N(C)CCC(C)C)ccc1O[C@H]1CCC[C@H](C(=O)O)C1` [Example 20], the IC50 is 8 nM.
Turning to `Cc1nc(-c2onc(C)c2COC(=O)N(C)CC2CCCC2)ccc1O[C@H]1CCC[C@H](C(=O)O)C1` [Example 21], the IC50 was found to be 29 nM.
In the case of `Cc1noc(-c2ccc(O[C@H]3CCC[C@H](C(=O)O)C3)cc2)c1COC(=O)N(C)CCC1CC1` [Example 27] it was 23 nM.
In the case of `Cc1noc(-c2ccc(O[C@@H]3CCC[C@@H](C(=O)O)C3)cc2)c1COC(=O)N(C)CCC1CCCC1` [Example 28], the IC50 was determined as 470 nM.
In the case of `Cc1noc(-c2ccc(O[C@H]3CCC[C@H](C(=O)O)C3)cc2)c1COC(=O)N(C)CCC(C)(C)C` [Example 30], the IC50 stood at 60 nM.
